Measured values reported in PubChem BioAssay (NCI).
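How tested: cells in 96-well plates exposed to compound for 48 hours at five concentrations. GI50 is the concentration that inhibits growth by half. TGI is the concentration that stops growth completely.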

Assays:
Test in all cases: DTP human tumour cell line panel, 48 h
BT-549 breast = tested on: BT-549 breast
DMS 273 small cell lung = tested on: DMS 273 small cell lung
HOP-18 NSCLC = tested on: HOP-18 NSCLC
M19-MEL melanoma = tested on: M19-MEL melanoma
RXF-631 renal = tested on: RXF-631 renal
SNB-78 CNS = tested on: SNB-78 CNS
LXFL 529 NSCLC = tested on: LXFL 529 NSCLC
XF 498 CNS = tested on: XF 498 CNS
MDA-N = tested on: MDA-N

Structure (SMILES) | GI50 (BT-549 breast) | TGI (BT-549 breast) | TGI (DMS 273 small cell lung) | TGI (M19-MEL melanoma) | TGI (LXFL 529 NSCLC) | also measured
COC(=O)c1oc2c(C(=O)/C=C/c3ccc(OC)cc3)c(OCCN(C)C)ccc2c1C | 4.88 µM | 16 µM |  |  |  | 
NC1=NN(c2ccccc2)C(=O)C1C(=O)C(=O)Nc1ccc(Cl)c(Cl)c1 (stereo not given) |  |  | > 100 µM | > 100 µM |  | TGI (HOP-18 NSCLC): > 100 µM; TGI (RXF-631 renal): > 100 µM; TGI (SNB-78 CNS): > 100 µM
CN1CCN(Cc2ccc(NC(=O)c3cncc(C#Cc4cnc(N)c5cccnc45)c3)cc2C(F)(F)F)CC1 | 1.48 µM | > 50 µM |  |  |  | 
Cc1cc(=O)n(-c2cc3cccccc-3n2)[nH]1 |  |  |  | 22.3 µM | 16.9 µM | TGI (HOP-18 NSCLC): 85.2 µM; TGI (XF 498 CNS): 7.46 µM
CCOC(=O)C(C#N)C1=CC(=O)C(=O)c2ccc(O)cc21 (stereo not given) |  |  |  |  |  | TGI (MDA-N): 32.7 µM
O=C(O)C1[O][Sb][O]C(C(=O)O)C1O (stereo not given) | > 100 µM | > 100 µM |  |  |  | 
Cc1cccc(C)c1N1C(=O)C(=O)C(c2nc3ccccc3s2)/C(=N\N)C1=O (stereo not given) |  |  | > 100 µM | > 100 µM | > 100 µM | TGI (HOP-18 NSCLC): > 100 µM; TGI (RXF-631 renal): > 100 µM; TGI (SNB-78 CNS): > 100 µM
Cc1cn(Cc2ccc(C34CC5CC(CC(C5)C3)C4)c(O)c2)c(=O)[nH]c1=O | 8.7 µM | 20.8 µM |  |  |  | 
O=C1c2ccccc2-c2c1c1ccccc1c(=O)n2CCCNCCn1c2c(c3ccccc3c1=O)C(=O)c1ccccc1-2 | 10.8 µM | 28.6 µM |  |  |  | 
CSc1nc2c(c(=O)n1C)CN(C1CCCCC1)C(=O)C(c1ccccc1)N2 (stereo not given) | 13.2 µM | 49.4 µM |  |  |  | 
O=C1O/C(=C/c2ccccc2)C(c2ccccc2)=C1O |  |  |  |  |  | TGI (MDA-N): > 100 µM
CC1(C)CCCC(C)(C2CCC3(C)C2C(O)CC2C4(C)CCC(O)C(C)(C)C4CCC23C)O1 (stereo not given) |  | > 100 µM |  |  |  | TGI (MDA-N): > 100 µM
COC(=O)C1=CC2C=CC(C1C(=O)OC)C1C(C(=O)OC)=C(C(=O)OC)C(C(=O)OC)=C(C(=O)OC)C21OC (stereo not given) |  |  | > 100 µM | > 100 µM | > 100 µM | TGI (HOP-18 NSCLC): > 100 µM; TGI (RXF-631 renal): > 100 µM; TGI (SNB-78 CNS): > 100 µM
COc1ccc(OC)c(/C=N/N=C(\N)NO)c1 |  |  | > 100 µM | > 100 µM | > 100 µM | TGI (RXF-631 renal): > 100 µM; TGI (SNB-78 CNS): > 100 µM; TGI (XF 498 CNS): 58.3 µM
Nc1nc(/C=C\c2ccccc2)nc(N2CCN(c3ccccc3)CC2)n1 | 45 µM | > 100 µM |  |  |  | 
CCN(CC)CCCC(C)N/C(=C1\C(=O)NC(=O)\C1=C(/NC(C)CCCN(CC)CC)c1cccc(OC)c1)c1cccc(OC)c1 (stereo not given) | 1.31 µM | 3.82 µM |  |  |  | 
CN(/N=C\c1ccnc2ccccc12)c1ccc([N+](=O)[O-])cc1 |  |  | > 100 µM | > 100 µM | > 100 µM | TGI (RXF-631 renal): > 100 µM; TGI (SNB-78 CNS): > 100 µM; TGI (XF 498 CNS): > 100 µM
CC(=O)N1N=C(c2ccc(Nc3nc(Nc4ccc(F)cc4)nc(Nc4ccc(F)cc4)n3)cc2)CC1c1ccc(N(C)C)cc1 (stereo not given) | 11 µM | 54.8 µM |  |  |  | 

Structure (SMILES) | GI50 (BT-549 breast) | TGI (BT-549 breast) | TGI (DMS 273 small cell lung) | TGI (M19-MEL melanoma) | TGI (LXFL 529 NSCLC) | also measured
O=C(c1ccc(Cl)cc1)C(O)c1ccc(Cl)cc1 (stereo not given) |  | > 100 µM |  |  |  | 
COC(=O)C1C(=O)O[C@@H](c2cc(OC)c(OC)cc2OC)C1C(=O)OC (mixture of isomers) |  |  | > 100 µM | > 100 µM | > 100 µM | TGI (RXF-631 renal): > 100 µM; TGI (SNB-78 CNS): > 100 µM; TGI (XF 498 CNS): > 100 µM
COC1(OC)C2(Cl)C(Cl)=C(Cl)C1(Cl)C1C2C2CC1(C(=O)O)c1ccccc12 (stereo not given) |  |  | 41.2 µM | 38.3 µM | 28 µM | TGI (HOP-18 NSCLC): 93.9 µM; TGI (RXF-631 renal): 42.8 µM
CO[C@H]1CC(O[C@@H]2/C(C)=C/C[C@@H]3C[C@@H](C[C@]4(CC[C@H](C)[C@@H](C5CCCCC5)O4)O3)OC(=O)[C@@H]3C=C(C)/C(=N/O)[C@H]4OC/C(=C\C=C\[C@@H]2C)[C@]43O)O[C@@H](C)C1O (stereo not given in full) | 1.17 µM | 3.41 µM |  |  |  | 
COC(=O)[C@@H]1Cc2c([nH]c3ccccc23)[C@H](c2ccccc2)N1 |  |  | 57.8 µM | > 100 µM | > 100 µM | TGI (HOP-18 NSCLC): > 100 µM
CNS(=O)(=O)NNS(=O)(=O)c1ccc(OC)cc1 |  |  | > 100 µM | > 100 µM | > 100 µM | TGI (RXF-631 renal): > 100 µM; TGI (XF 498 CNS): > 100 µM
CCCCCC/C=C\CCCCCCCCCC1=C(CN2CCN(C)CC2)C(=O)C=C(OC)C1=O |  | 15.5 µM |  |  |  | TGI (MDA-N): 21.1 µM
Cc1cc(C)c(-c2noc(-c3ccc(Cl)cc3)c2C2=NCCCN2)c(C)c1 |  |  |  | > 100 µM | > 100 µM | TGI (HOP-18 NSCLC): > 100 µM; TGI (RXF-631 renal): > 100 µM; TGI (SNB-78 CNS): > 100 µM; TGI (XF 498 CNS): 54.8 µM
NS(=O)(=O)c1cc(C(=O)O)c(O)c2ccccc12 |  | > 100 µM |  |  |  | TGI (MDA-N): > 100 µM
COc1c(-c2ccccc2)nc2ccc(Oc3ccccc3)nn12 |  |  | > 100 µM | > 100 µM | > 100 µM | TGI (HOP-18 NSCLC): > 87.1 µM; TGI (SNB-78 CNS): > 100 µM; TGI (XF 498 CNS): 66.9 µM
CCN(Cc1cccc(Cl)c1)c1ccc(CO)c(Cl)c1 | 11.5 µM | 24.3 µM |  |  |  | 
COc1cccc(Nc2nc3ccccc3c3occc23)c1 | 10.4 µM | 23 µM |  |  |  | 
COC1OC2COC(C)(C)OC2C(OC(C)=O)C1NC(=O)N(CCCl)N=O (stereo not given) |  |  | > 100 µM | > 100 µM | > 100 µM | TGI (HOP-18 NSCLC): > 100 µM; TGI (SNB-78 CNS): > 100 µM; TGI (XF 498 CNS): > 100 µM
C=CCC(N[C@H](CO)c1ccccc1)c1cn(Cc2ccccc2Cl)c(=O)n(Cc2ccccc2Cl)c1=O (stereo not given in full) |  | 7.01 µM |  |  |  | 
N#Cc1cnc(Nc2cc(NC[C@H]3CNCCO3)c(C(F)(F)F)cn2)cn1 | 5.62 µM | 32 µM |  |  |  | 
CCc1nc2ccc(N=Nc3c(O)ccc4ccccc34)cc2[nH]1 |  | 36.2 µM | 35.3 µM | 33.8 µM | 24.5 µM | TGI (MDA-N): 51.5 µM; TGI (SNB-78 CNS): 32.7 µM
CCCCCCCCCC[C@H](O)[C@H](O)CC[C@@H](O)[C@H]1CC[C@@H]([C@H]2CC[C@H](CCCCCCC[C@@H](O)CC3=C[C@H](C)OC3=O)O2)O1 |  |  |  |  |  | GI50 (MDA-N): 17.5 µM; TGI (MDA-N): 53 µM
